Here are results for 43 compounds from ChEMBL document CHEMBL3271966, “beta-Adrenergic blocking agents. 17. 1-Phenoxy-3-phenoxyalkylamino-2-propanols and 1-alkoxyalkylamino-3-phenoxy-2-propanols” (J Med Chem, 1977).

For series [1], the system named is Felis catus. The experiment in a line: Inhibition of isoproterenol-induced vasodepressor response in anesthetized cat compound administered as an infusion over a period of 30 mins. As to conditions: in vivo, iv, 0.5 h. In kind it is organism-based.
The subject of series [2] is Felis catus. Kind of series: Inhibition of isoproterenol-induced tachycardia in anesthetized cat compound administered as an infusion over a period of 30 mins. In kind it is functional.

Active and inactive are the calls of the source. No cut-off for these calls is given here.

As to `COc1ccccc1OCCNCC(O)COc1ccccc1OC.O=C(O)C(=O)O` (configuration not stated), in the series with Felis catus [1], the “inhibition (INH)” value is given as 60%. Moreover, in the series with Felis catus [2] (0.5 h), it took a dose of 0.539 mg/kg to reach the 50% effect level (ED50).
The like results for `CC(CNCC(O)COc1ccccc1)Oc1ccccc1` (configuration not stated) were, in that order, 0% and 0.051 mg/kg.
In the case of `Cc1ccc(OCC(O)CNCCOc2ccccc2)cc1` (configuration not stated), in the series with Felis catus [2], the ED50 result is “inactive”.
Regarding `COc1ccccc1OCCCNCC(O)COc1ccccc1.O=C(O)C(=O)O` (configuration not stated), the “inhibition (INH)” value in the series on Felis catus [1] stood at 15%. This compound gave an ED50 with Felis catus [2] (0.5 h) of 0.721 mg/kg.
For `Cc1ccccc1OCC(O)CNCCOc1ccccc1.Cl` (configuration not stated), the “inhibition (INH)” value in the series with Felis catus [1] was 12%. The compound also showed an ED50 in the series on Felis catus [2] (0.5 h) of 0.284 mg/kg.
The like results for `COCCNCC(O)COc1ccc(O)cc1` (configuration not stated) were, in that order, 0% and 0.118 mg/kg.
With `Cl.Oc1ccccc1OCCNCC(O)COc1ccccc1` (configuration not stated), the “inhibition (INH)” value in the series with Felis catus [1] was 0%. In the series on Felis catus [2] (0.5 h), this compound registered an ED50 of 0.022 mg/kg.
As for `COCCNCC(O)COc1ccccc1` (configuration not stated), the “inhibition (INH)” value with Felis catus [1] is reported as 0%. In the series with Felis catus [2] (0.5 h), this compound gave an ED50 of 0.13 mg/kg.
The like results for `OC(CNCCOc1cccc(Cl)c1)COc1ccccc1` (configuration not stated) were, in that order, 36% and 0.375 mg/kg.
On to `CCOCCCNCC(O)COc1ccccc1` (configuration not stated), for which the “inhibition (INH)” value with Felis catus [1] is given as 0%. This compound also registered an ED50 in the series with Felis catus [2] (0.5 h) of 0.066 mg/kg.
Turning to `Cl.OC(CNCCCOc1ccccc1)COc1ccccc1` (configuration not stated), the “inhibition (INH)” value in the series with Felis catus [1] was found to be 0%. This compound returned a median effective dose (ED50) with Felis catus [2] (0.5 h) of 0.239 mg/kg.
The like results for `COc1ccccc1OCCNCC(O)COc1ccccc1` (configuration not stated) were, in that order, 0% and 0.063 mg/kg.
For the compound `OC(CNCCOc1ccc(Cl)cc1)COc1ccccc1` (configuration not stated), in the series with Felis catus [1], the “inhibition (INH)” value is recorded as 0%. For the same compound, in the series on Felis catus [2] (0.5 h), it took a dose of 0.08 mg/kg to reach the 50% effect level (ED50).
The like results for `COc1ccccc1OC(C)CNCC(O)COc1ccccc1.O=C(O)C(=O)O` (configuration not stated) were, in that order, 0% and 0.014 mg/kg.
As for `OC(CNCCOc1ccccc1F)COc1ccccc1` (configuration not stated), the “inhibition (INH)” value in the series on Felis catus [1] turned out to be 0%. Also, the 50% effect level with Felis catus [2] (0.5 h) (ED50) was put at a dose of 0.081 mg/kg.
Consider `COCCNCC(O)COc1ccccc1C#N` (configuration not stated), for which the “inhibition (INH)” value in the series on Felis catus [1] amounted to 0%. This compound also gave an ED50 in the series on Felis catus [2] (0.5 h) of 0.198 mg/kg.
For `OC(CNCCOc1ccc(OCc2ccccc2)cc1)COc1ccccc1` (configuration not stated), the “inhibition (INH)” value in the series with Felis catus [1] was determined as 0%. In addition, the 50% effect level in the series on Felis catus [2] (0.5 h) (ED50) was put at a dose of 0.534 mg/kg.
With `Cc1cccc(OCCNCC(O)COc2ccccc2)c1.Cl` (configuration not stated), the “inhibition (INH)” value in the series on Felis catus [1] was 29%. Further, the median effective dose (ED50) with Felis catus [2] (0.5 h) was 0.116 mg/kg.
In the case of `Cc1cccc(Cl)c1OCCNCC(O)COc1ccccc1.O=C(O)C(=O)O` (configuration not stated), the “inhibition (INH)” value in the series with Felis catus [1] is 79%. Besides, it took a dose of 0.09 mg/kg to reach the 50% effect level in the series with Felis catus [2] (0.5 h) (ED50).
As for `O=C(O)C(=O)O.OC(CNCCOc1ccccc1Cl)COc1ccccc1` (configuration not stated), in the series on Felis catus [1], the “inhibition (INH)” value stood at 71%. Moreover, the median effective dose (ED50) in the series on Felis catus [2] (0.5 h) was found to be 0.821 mg/kg.
Consider `CCOCCCNCC(O)COc1ccccc1[N+](=O)[O-].O=C(O)C(=O)O` (configuration not stated), for which the “inhibition (INH)” value in the series with Felis catus [1] was found to be 0%. It took a dose of 0.566 mg/kg to reach the 50% effect level in the series with Felis catus [2] (0.5 h) (ED50).
The like results for `O=C(O)C(=O)O.OC(CNCCOc1ccccc1)COc1ccccc1Cl` (configuration not stated) were, in that order, 38% and 1.11 mg/kg.
As for `OC(CNCCOc1ccc(F)cc1)COc1ccccc1` (configuration not stated), in the series with Felis catus [1], the “inhibition (INH)” value stood at 58%. The same compound returned a median effective dose (ED50) in the series with Felis catus [2] (0.5 h) of 0.029 mg/kg.
Regarding `CC(C)OCCNCC(O)COc1ccccc1[N+](=O)[O-].O=C(O)C(=O)O` (configuration not stated), the “inhibition (INH)” value in the series with Felis catus [1] is reported as 0%. The same compound gave a median effective dose (ED50) in the series on Felis catus [2] (0.5 h) of 0.195 mg/kg.
Turning to `OC(CNCCOc1ccccc1)COc1ccc(OCc2ccccc2)cc1` (configuration not stated), the ED50 entry in the series on Felis catus [2] is “inactive”.
For the compound `Cc1ccc(OCCNCC(O)COc2ccccc2)cc1` (configuration not stated), the “inhibition (INH)” value in the series with Felis catus [1] was found to be 0%. The same compound returned an ED50 with Felis catus [2] (0.5 h) of 0.179 mg/kg.
Regarding `C=CCc1ccccc1OCCNCC(O)COc1ccccc1.O=C(O)C(=O)O` (configuration not stated), in the series on Felis catus [1], the “inhibition (INH)” value stood at 33%. The ED50 in the series with Felis catus [2] (0.5 h) was 0.75 mg/kg.
As for `Cc1ccccc1OCCNCC(O)COc1ccccc1` (configuration not stated), in the series on Felis catus [1], the “inhibition (INH)” value is recorded as 0%. The compound further yielded an ED50 in the series with Felis catus [2] (0.5 h) of 0.031 mg/kg.
Take `Cc1ccccc1OCC(O)CNCCOc1ccc(C(N)=O)cc1` (configuration not stated) [TOLAMOLOL]: in the series on Felis catus [1], the “inhibition (INH)” value amounted to 81%. It took a dose of 0.133 mg/kg to reach the 50% effect level with Felis catus [2] (0.5 h) (ED50).
On to `COCCNCC(O)COc1cccc2ccccc12` (configuration not stated), for which the ED50 entry in the series on Felis catus [2] is “inactive”.
For `CCCc1ccccc1OCCNCC(O)COc1ccccc1.O=C(O)C(=O)O` (configuration not stated), in the series with Felis catus [1], the “inhibition (INH)” value is reported as 0%. The same compound returned a median effective dose (ED50) in the series with Felis catus [2] (0.5 h) of 0.833 mg/kg.
`O=C(O)C(=O)O.OC(CNCCOc1c(Cl)cccc1Cl)COc1ccccc1` (configuration not stated): in the series on Felis catus [1], the “inhibition (INH)” value turned out to be 11%. The compound also returned a 50% effective dose (ED50) in the series with Felis catus [2] (0.5 h) of 0.402 mg/kg.
The like results for `CCOCCNCC(O)COc1ccccc1` (configuration not stated) were, in that order, 10% and 0.047 mg/kg.
With `COc1ccccc1OCC(O)CNCCOc1ccccc1.O=C(O)C(=O)O` (configuration not stated), the “inhibition (INH)” value in the series with Felis catus [1] was found to be 0%. This compound came in with an ED50 in the series on Felis catus [2] (0.5 h) of 0.527 mg/kg.
As for `COc1cccc(OC)c1OCCNCC(O)COc1ccccc1.O=C(O)C(=O)O` (configuration not stated), in the series with Felis catus [1], the “inhibition (INH)” value is reported as 0%. For the same compound, it took a dose of 2.26 mg/kg to reach the 50% effect level in the series on Felis catus [2] (0.5 h) (ED50).
With `Cc1cccc(OCC(O)CNCCOc2ccccc2)c1.Cl` (configuration not stated), the “inhibition (INH)” value in the series on Felis catus [1] was 33%. Further, the 50% effective dose (ED50) in the series on Felis catus [2] (0.5 h) was found to be 1.76 mg/kg.
Regarding `COCCNCC(O)COc1ccccc1[N+](=O)[O-]` (configuration not stated), the “inhibition (INH)” value in the series on Felis catus [1] is reported as 29%. The compound further gave an ED50 in the series on Felis catus [2] (0.5 h) of 0.293 mg/kg.
As to `COCCNCC(O)COc1ccc(Cl)cc1` (configuration not stated), the ED50 result in the series on Felis catus [2] was “inactive”.
With `OC(CNCCOc1ccccc1)COc1ccccc1Br` (configuration not stated), in the series with Felis catus [1], the “inhibition (INH)” value was found to be 0%. It took a dose of 0.3 mg/kg to reach the 50% effect level in the series with Felis catus [2] (0.5 h) (ED50).
The like results for `Oc1ccc(OCC(O)CNCCOc2ccccc2)cc1` (configuration not stated) were, in that order, 78% and 0.031 mg/kg.
As to `OC(CNCCOc1ccccc1)COc1ccccc1` (configuration not stated), in the series on Felis catus [1], the “inhibition (INH)” value worked out at 0%. This compound also had an ED50 in the series with Felis catus [2] (0.5 h) of 0.054 mg/kg.
For the compound `COc1ccc(OCCNCC(O)COc2ccccc2)cc1` (configuration not stated), in the series with Felis catus [1], the “inhibition (INH)” value was 0%. This compound gave an ED50 with Felis catus [2] (0.5 h) of 0.064 mg/kg.
`Cl.OC(CNCCOc1cccc2ccccc12)COc1ccccc1` (configuration not stated): the “inhibition (INH)” value in the series on Felis catus [1] was found to be 0%. Besides, the median effective dose (ED50) in the series on Felis catus [2] (0.5 h) amounted to 0.231 mg/kg.
